Laboratory results reported in patent US20060079512A1, “Dibenzodiazepinone analogues, processes for their production and their use as pharmaceuticals” (Ecopia BioSciences, Inc., priority 2003, published 2006).
pIC50: −log10 of the molar value. Like-named read-outs stand apart in the source and are kept apart here.

Columns and labels:
36 cancer cell lines = test: Anticancer activity profiling against 36 cell lines (IC50); type: cell-based
Method: Compounds were dissolved at 10 mM in DMSO. Dilution in vehicle to concentrations of 30, 10, 3, 1 and 0.3 μM were prepared immediately before assays. Depending on the cell line's growth characteristics, 4000-10000 cells were plated in two 96-wells pates (day 0) and incubated for 16 hours. The following day, propidium iodide was added to one of the two plates and fluorescence measured (Tz). Test compounds were added to the second plate, as well as vehicle control, and cells further incubated for 96 hours. Each compound was tested at each concentration and in triplicates. The equivalent cell number was determined after adding propidium iodide by measuring the signal by fluorescence (C for control).

[1] = tested on: rat glioblastoma tumor (C6) xenografts; test: Antitumor efficacy against rat glioblastoma tumor (C6) xenografts; type: in vivo, female swiss nude mice; details: intravenous, 75 mg/kg (qd5/2/qd5)
Source text: Antitumor efficacy of Compound 2 against rat glioblastoma tumor (C6) xenografts in female swiss nude mice was accomplished as described above.

Question: How did the “levels of IC50 values” (36 cancer cell lines; 36 tumor types) turn out when `CC(C)=CCC/C(C)=C/CC/C(C)=C/CN1C(=O)c2cccc(O)c2N(C)c2c(O)cc(O)cc21` [Compound 2, 10-farnesyl-4,6,8-trihydroxy-5-methyl-5,10-dihydro-dibenzo[b,e][1,4]diazepin-11-one] was run?
Answer: low micromolar to nanomolar

Question: What about the pIC50 (36 cancer cell lines; Bladder, cell line 1218L (Xenograft), urothelial adeno ca, read-out: IC50) of the same compound?
Answer: 6.78

Question: And the pIC50 (36 cancer cell lines; Bladder, cell line T24 (ATCC), transitional cell ca, read-out: IC50)?
Answer: 6.90

Question: And the pIC50 (36 cancer cell lines; CNS, cell line SF268 (NCI), read-out: IC50)?
Answer: 8.00

Question: And the pIC50 (36 cancer cell lines; Gastric, cell line 251L (Xenograft), adeno ca, pd, read-out: IC50)?
Answer: 6.98

Question: What about the pIC50 (36 cancer cell lines; Head & Neck, cell line 536L (Xenograft), hypopharynx ca, read-out: IC50) of the same compound?
Answer: 6.74

Question: What about the pIC50 (36 cancer cell lines; Homo sapiens, 22Rv1, Prostate, cell line 22RV1 (ATCC), adeno ca, md, read-out: IC50) of the same compound?
Answer: 6.85

Question: And the pIC50 (36 cancer cell lines; Homo sapiens, CNS cell, CNS, cell line 498NL (Xenograft), glioblastoma, read-out: IC50)?
Answer: 6.75

Question: What about the pIC50 (36 cancer cell lines; Homo sapiens, DU-145, Prostate, cell line DU145 (NCI), adeno ca, md, read-out: IC50) of the same compound?
Answer: 6.80

Question: What about the pIC50 (36 cancer cell lines; Homo sapiens, HCT-116, Colon, cell line HCT116 (NCI), adeno ca, pd, read-out: IC50) of the same compound?
Answer: 6.81

Question: And the pIC50 (36 cancer cell lines; Homo sapiens, HT-29, Colon, cell line HT29 (NCI), adeno ca, pd, read-out: IC50)?
Answer: 6.65

Question: What about the pIC50 (36 cancer cell lines; Homo sapiens, LNCaP, Prostate, cell line LNCAP (DSMZ), adeno ca, md, read-out: IC50) of the same compound?
Answer: 6.31

Question: What about the pIC50 (36 cancer cell lines; Homo sapiens, MCF7, Mammary, cell line MCF7 (NCI), mamma ca, read-out: IC50) of the same compound?
Answer: 6.56

Question: What about the pIC50 (36 cancer cell lines; Homo sapiens, NCI-H460, Lung, cell line H460 (NCI), large cell ca, read-out: IC50) of the same compound?
Answer: 6.44

Question: And the pIC50 (36 cancer cell lines; Homo sapiens, OVCAR-3, Ovarian, cell line OVCAR3 (NCI), adeno ca, md, read-out: IC50)?
Answer: 6.86

Question: What about the pIC50 (36 cancer cell lines; Homo sapiens, PANC-1, Pancreas, cell line PANC1 (ATCC), read-out: IC50) of the same compound?
Answer: 6.90

Question: And the pIC50 (36 cancer cell lines; Homo sapiens, PC-3M, Prostate, cell line PC3M (NCI), adeno ca, pd, read-out: IC50)?
Answer: 6.94

Question: What about the pIC50 (36 cancer cell lines; Lung, cell line 289L (Xenograft), adeno ca, read-out: IC50) of the same compound?
Answer: 5.81

Question: What about the pIC50 (36 cancer cell lines; Lung, cell line 526L (Xenograft), adeno ca, read-out: IC50) of the same compound?
Answer: 6.98

Question: What about the pIC50 (36 cancer cell lines; Lung, cell line 529L (Xenograft), large cell ca, read-out: IC50) of the same compound?
Answer: 6.90

Question: And the pIC50 (36 cancer cell lines; Lung, cell line 629L (Xenograft), adeno ca, read-out: IC50)?
Answer: 6.79

Question: What about the pIC50 (36 cancer cell lines; Lung, cell line 1121L (Xenograft), large cell ca, read-out: IC50) of the same compound?
Answer: 6.90

Question: And the pIC50 (36 cancer cell lines; Mammary, cell line 401NL (Xenograft), pap adeno ca, wd, read-out: IC50)?
Answer: 6.71

Question: And the pIC50 (36 cancer cell lines; Melanoma, cell line 276L (Xenograft), mm, amelanotic, read-out: IC50)?
Answer: 5.71

Question: What about the pIC50 (36 cancer cell lines; Melanoma, cell line 394NL (Xenograft), mm, amelanotic, pd, read-out: IC50) of the same compound?
Answer: 7.70

Question: And the pIC50 (36 cancer cell lines; Melanoma, cell line 462NL (Xenograft), mm, amelanotic, read-out: IC50)?
Answer: 6.01

Question: And the pIC50 (36 cancer cell lines; Melanoma, cell line 514L (Xenograft), mm, melanotic, read-out: IC50)?
Answer: 6.96

Question: What about the pIC50 (36 cancer cell lines; Melanoma, cell line 520L (Xenograft), mm, melanotic, read-out: IC50) of the same compound?
Answer: 7.07

Question: And the pIC50 (36 cancer cell lines; Ovarian, cell line 899L (Xenograft), pap serous ca, md, read-out: IC50)?
Answer: 6.62

Question: What about the pIC50 (36 cancer cell lines; Ovarian, cell line 1619L (Xenograft), adeno ca, md, read-out: IC50) of the same compound?
Answer: 6.24

Question: And the pIC50 (36 cancer cell lines; Pancreas, cell line 1657L (Xenograft), adeno ca, md, read-out: IC50)?
Answer: 5.75

Question: What about the pIC50 (36 cancer cell lines; Pleuramesot., cell line 1752L (Xenograft), pleuromesothelioma, read-out: IC50) of the same compound?
Answer: 5.82

Question: And the pIC50 (36 cancer cell lines; Renal, cell line 393NL (Xenograft), hypernephroma, wd, read-out: IC50)?
Answer: 6.28

Question: What about the pIC50 (36 cancer cell lines; Renal, cell line 486L (Xenograft), hypernephroma, pd, read-out: IC50) of the same compound?
Answer: 5.94

Question: What about the pIC50 (36 cancer cell lines; Renal, cell line 944L (Xenograft), hypernephroma, read-out: IC50) of the same compound?
Answer: 6.64

Question: What about the pIC50 (36 cancer cell lines; Renal, cell line 1781L (Xenograft), renal ca, read-out: IC50) of the same compound?
Answer: 6.76

Question: And the pIC50 (36 cancer cell lines; Uterus, cell line 1138L (Xenograft), carcinosarcoma, wd, read-out: IC50)?
Answer: 6.86

Question: And the pIC50 (36 cancer cell lines; mean of all 36 cell lines, read-out: IC50, Mean of all cell lines)?
Answer: 6.39

Question: What about the Antitumor efficacy [1] of the same compound?
Answer: Significant efficacy
